Experimental data reported in patent publication US12018016B2, “Aryl sulfonyl (hydroxy) piperidines as CCR6 inhibitors” (CHEMOCENTRYX, INC., priority 2021, dated 2024).

What follows are compounds tested against T1, human CCR6 (Homo sapiens, UniProt P51684) (assay: Migration assay (chemotaxis, ChemoTX)). Conditions: hCCR6-transfected Ba/F3 cells in human serum, migration to recombinant human CCL20 10 nM, 37° C. 45 minutes; read-out: Potency (IC50 value in the migration assay).
T1 construct: expressed in transfected cells; host or cells: Ba/F3 cells (mouse pro-B line)
T1 sequence (P51684 1-374): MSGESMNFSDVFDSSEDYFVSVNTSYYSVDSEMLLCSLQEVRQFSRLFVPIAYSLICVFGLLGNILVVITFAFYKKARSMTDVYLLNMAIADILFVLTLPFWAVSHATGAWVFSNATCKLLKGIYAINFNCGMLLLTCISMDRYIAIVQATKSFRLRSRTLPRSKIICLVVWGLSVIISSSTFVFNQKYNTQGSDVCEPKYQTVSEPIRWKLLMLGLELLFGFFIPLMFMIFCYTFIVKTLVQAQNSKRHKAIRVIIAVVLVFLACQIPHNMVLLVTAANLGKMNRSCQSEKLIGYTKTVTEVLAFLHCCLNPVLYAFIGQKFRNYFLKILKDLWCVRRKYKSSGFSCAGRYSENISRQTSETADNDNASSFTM
Assay type: cell-based
Summary of the method: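 Ba/F3 cells transfected with human CCR6 and butyrate-primed for 24 h were suspended at 4 million/ml in human serum with compound, serially diluted from a 1 μM final top concentration. Cells migrated through a 5-μm polycarbonate membrane toward 10 nM human CCL20 for 45 min at 37 °C. Migrated cells were quantified by CyQUANT fluorescence.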

Row | Compound | IC50
1 | O=S(=O)(c1ccc(-c2cnnc(N3CCOCC3)c2)cc1)N1CC[C@@H](Nc2ccc(C(F)(F)F)cn2)[C@@H](O)C1 [Compound 200] | < 1 nM
2 | CN1CCN(c2ccc(-c3ccc(S(=O)(=O)N4CC[C@@H](Nc5ccc(C(F)(F)F)cn5)[C@@H](O)C4)cc3)cn2)CC1 [Compound 115] | < 1 nM
3 | O=S(=O)(c1ccc(-c2ccc(N3CCC(O)CC3)nc2)cc1)N1CC[C@@H](Nc2ccc(C(F)(F)F)cn2)[C@@H](O)C1 [Compound 171] | < 1 nM
4 | N#Cc1cc(-c2ccc(S(=O)(=O)N3CC[C@@H](Nc4ccc(C(F)(F)F)cn4)[C@@H](O)C3)cc2)ccn1 [Example 57, 4-(4-(((3S,4R)-3-hydroxy-4-((5-(trifluoromethyl)pyridin-2-yl)amino)piperidin-1-yl)sulfonyl)phenyl)picolinonitrile] | < 1 nM
5 | CN1CCN(c2cc(-c3ccc(S(=O)(=O)N4CC[C@@H](Nc5ccc(C(F)(F)F)cn5)[C@@H](O)C4)cc3)ccn2)CC1 [Compound 113] | 10 to 1000 nM
6 | O=C1NCC[C@H]1Nc1ccc(-c2ccc(S(=O)(=O)N3CC[C@@H](Nc4ccc(C(F)(F)F)cn4)[C@@H](O)C3)cc2)cn1 [Compound 169] | < 1 nM
7 | CN(C)[C@H]1C[C@@H](Nc2ccc(-c3ccc(S(=O)(=O)N4CC[C@@H](Nc5ccc(C(F)(F)F)cn5)[C@@H](O)C4)cc3)cn2)C1 [Compound 96] | < 1 nM
8 | Cc1c[nH]c(-c2cc(-c3ccc(S(=O)(=O)N4CC[C@@H](Nc5ccc(C(F)(F)F)cn5)[C@@H](O)C4)cc3)ccn2)n1 [Compound 215] | 1 to 10 nM
9 | O=S(=O)(c1ccc(-c2ccnc(-c3ncc[nH]3)c2)cc1)N1CC[C@@H](Nc2ccc(C(F)(F)F)cn2)[C@@H](O)C1 [Example 52, (3S,4R)-1-((4-(2-(1H-imidazol-2-yl)pyridin-4-yl)phenyl)sulfonyl)-4-((5-(trifluoromethyl)pyridin-2-yl)amino)piperidin-3-ol] | < 1 nM
10 | CNC(=O)N1Cc2cc(-c3ccc(S(=O)(=O)N4CC[C@@H](Nc5ccc(C(F)(F)F)cn5)[C@@H](O)C4)cc3)cc(C)c2C1 [Compound 188] | < 1 nM
11 | Nc1ccc(-c2ccc(S(=O)(=O)N3CC[C@@H](Nc4ccc(C(F)(F)F)cn4)[C@@H](O)C3)cc2)cn1 [Compound 160] | < 1 nM
12 | CN(C)[C@H]1C[C@H](Nc2ccc(-c3ccc(S(=O)(=O)N4CC[C@@H](Nc5ccc(C(F)(F)F)cn5)[C@@H](O)C4)cc3)cn2)C1 [Compound 91] | 1 to 10 nM
13 | NC(=O)c1cc(-c2ccc(S(=O)(=O)N3CC[C@@H](Nc4ccc(C(F)(F)F)cn4)[C@@H](O)C3)cc2)cc(N)n1 [Compound 202] | < 1 nM
14 | CN(C)c1ccc(-c2ccc(S(=O)(=O)N3CC[C@@H](Nc4ccc(C(F)(F)F)cn4)[C@@H](O)C3)cc2)cn1 [Compound 112] | < 1 nM
15 | O=S(=O)(c1ccc(-c2ccnc(-c3nnco3)c2)cc1)N1CC[C@@H](Nc2ccc(C(F)(F)F)cn2)[C@@H](O)C1 [Compound 68, (3S,4R)-1-((4-(2-(1,3,4-oxadiazol-2-yl)pyridin-4-yl)phenyl)sulfonyl)-4-((5-(trifluoromethyl)pyridin-2-yl)amino)piperidin-3-ol] | < 1 nM
16 | N[C@H]1C[C@@H](Nc2cc(-c3ccc(S(=O)(=O)N4CC[C@@H](Nc5ccc(C(F)(F)F)cn5)[C@@H](O)C4)cc3)ccn2)C1 [Compound 129] | < 1 nM

Row | Compound | IC50
17 | Cn1ccnc1-c1cc(-c2ccc(S(=O)(=O)N3CC[C@@H](Nc4ccc(C(F)(F)F)cn4)[C@@H](O)C3)cc2)ccn1 [Compound 65, (3S,4R)-1-((4-(2-(1-methyl-1H-imidazol-2-yl)pyridin-4-yl)phenyl)sulfonyl)-4-((5-(trifluoromethyl)pyridin-2-yl)amino)piperidin-3-ol] | 10 to 1000 nM
18 | O=C1C[C@@H](Nc2ccc(-c3ccc(S(=O)(=O)N4CC[C@@H](Nc5ccc(C(F)(F)F)cn5)[C@@H](O)C4)cc3)cn2)CN1 [Compound 168] | < 1 nM
19 | NC(=O)c1ccc(-c2ccc(S(=O)(=O)N3CC[C@@H](Nc4ccc(C(F)(F)F)cn4)[C@@H](O)C3)cc2)cn1 [Example 28, 5-(4-(((3S,4R)-3-Hydroxy-4-((5-(trifluoromethyl)pyridin-2-yl)amino)piperidin-1-yl)sulfonyl)phenyl)picolinamide] | < 1 nM
20 | NC(=O)c1ncc(-c2ccc(S(=O)(=O)N3CC[C@@H](Nc4ccc(C(F)(F)F)cn4)[C@@H](O)C3)cc2)s1 [Example 42, 5-(4-(((3S,4R)-3-Hydroxy-4-((5-(trifluoromethyl)pyridin-2-yl)amino)piperidin-1-yl)sulfonyl)phenyl)thiazole-2-carboxamide] | < 1 nM
21 | Cn1c(-c2ccc(S(=O)(=O)N3CC[C@@H](Nc4ccc(C(F)(F)F)cn4)[C@@H](O)C3)cc2)cnc1C(N)=O [Compound 71, 5-(4-(((3S,4R)-3-hydroxy-4-((5-(trifluoromethyl)pyridin-2-yl)amino)piperidin-1-yl)sulfonyl)phenyl)-1-methyl-1H-imidazole-2-carboxamide] | < 1 nM
22 | CN1CCN(c2cncc(-c3ccc(S(=O)(=O)N4CC[C@@H](Nc5ccc(C(F)(F)F)cn5)[C@@H](O)C4)cc3)c2)CC1 [Compound 108] | < 1 nM
23 | NC(=O)c1cc(-c2ccc(S(=O)(=O)N3CC[C@@H](Nc4ccc(C(F)(F)F)cn4)[C@@H](O)C3)cc2)ccn1 [Example 31, 4-(4-(((3S,4R)-3-hydroxy-4-((5-(trifluoromethyl)pyridin-2-yl)amino)piperidin-1-yl)sulfonyl)phenyl)picolinamide] | < 1 nM
24 | O=S(=O)(c1ccc(-c2nnc(N3CCOCC3)o2)cc1)N1CC[C@@H](Nc2ccc(C(F)(F)F)cn2)[C@@H](O)C1 [Compound 194] | 10 to 1000 nM
25 | Cc1cc(-c2ccc(S(=O)(=O)N3CC[C@@H](Nc4ccc(C(F)(F)F)cn4)[C@@H](O)C3)cc2)cc2cn[nH]c12 [Example 16, (3S,4R)-1-((4-(7-methyl-1H-indazol-5-yl)phenyl)sulfonyl)-4-((5-(trifluoromethyl)pyridin-2-yl)amino)piperidin-3-ol] | < 1 nM
26 | O=S(=O)(c1ccc(-c2ccnc(N3CC(O)C3)c2)cc1)N1CC[C@@H](Nc2ccc(C(F)(F)F)cn2)[C@@H](O)C1 [Compound 137] | < 1 nM
27 | NC(=O)c1cncc(-c2ccc(S(=O)(=O)N3CC[C@@H](Nc4ccc(C(F)(F)F)cn4)[C@@H](O)C3)cc2)c1 [Example 27, 5-(4-(((3S,4R)-3-Hydroxy-4-((5-(trifluoromethyl)pyridin-2-yl)amino)piperidin-1-yl)sulfonyl)phenyl)nicotinamide] | 1 to 10 nM
28 | CN(C)C1CCN(c2ccc(-c3ccc(S(=O)(=O)N4CC[C@@H](Nc5ccc(C(F)(F)F)cn5)[C@@H](O)C4)cc3)cn2)CC1 [Compound 105] | 1 to 10 nM
29 | Cc1cc(-c2ccc(S(=O)(=O)N3CC[C@@H](Nc4ccc(C(F)(F)F)cn4)[C@@H](O)C3)cc2)cc2cnn(C)c12 [Compound 123] | < 1 nM
30 | Nc1nnc2ccc(-c3ccc(S(=O)(=O)N4CC[C@@H](Nc5ccc(C(F)(F)F)cn5)[C@@H](O)C4)cc3)cn12 [Example 13, (3S,4R)-1-((4-(3-amino-[1,2,4]triazolo[4,3-a]pyridin-6-yl)phenyl)sulfonyl)-4-((5-(trifluoromethyl)pyridin-2-yl)amino)piperidin-3-ol] | < 1 nM
31 | COc1cc(-c2ccc(S(=O)(=O)N3CC[C@@H](Nc4ccc(C(F)(F)F)cn4)[C@@H](O)C3)cc2)cc2c(C#N)n[nH]c12 [Compound 122] | < 1 nM
32 | NC1CCN(c2ccc(-c3ccc(S(=O)(=O)N4CC[C@@H](Nc5ccc(C(F)(F)F)cn5)[C@@H](O)C4)cc3)cn2)CC1 [Compound 106] | < 1 nM
